In ChEMBL document CHEMBL1141479 (Bioorg Med Chem Lett, 2008):
Activity calls are given as the source filed them. No cut-off for these calls is given here.

Columns and labels:
Progesterone receptor [1] = biological target: T1, Progesterone receptor (Homo sapiens, UniProt P06401); assay: (§1) Agonist activity at progesterone receptor expressed in CHO cells by luciferase assay; type: functional, cell-based
T1 sequence (P06401 whole entry): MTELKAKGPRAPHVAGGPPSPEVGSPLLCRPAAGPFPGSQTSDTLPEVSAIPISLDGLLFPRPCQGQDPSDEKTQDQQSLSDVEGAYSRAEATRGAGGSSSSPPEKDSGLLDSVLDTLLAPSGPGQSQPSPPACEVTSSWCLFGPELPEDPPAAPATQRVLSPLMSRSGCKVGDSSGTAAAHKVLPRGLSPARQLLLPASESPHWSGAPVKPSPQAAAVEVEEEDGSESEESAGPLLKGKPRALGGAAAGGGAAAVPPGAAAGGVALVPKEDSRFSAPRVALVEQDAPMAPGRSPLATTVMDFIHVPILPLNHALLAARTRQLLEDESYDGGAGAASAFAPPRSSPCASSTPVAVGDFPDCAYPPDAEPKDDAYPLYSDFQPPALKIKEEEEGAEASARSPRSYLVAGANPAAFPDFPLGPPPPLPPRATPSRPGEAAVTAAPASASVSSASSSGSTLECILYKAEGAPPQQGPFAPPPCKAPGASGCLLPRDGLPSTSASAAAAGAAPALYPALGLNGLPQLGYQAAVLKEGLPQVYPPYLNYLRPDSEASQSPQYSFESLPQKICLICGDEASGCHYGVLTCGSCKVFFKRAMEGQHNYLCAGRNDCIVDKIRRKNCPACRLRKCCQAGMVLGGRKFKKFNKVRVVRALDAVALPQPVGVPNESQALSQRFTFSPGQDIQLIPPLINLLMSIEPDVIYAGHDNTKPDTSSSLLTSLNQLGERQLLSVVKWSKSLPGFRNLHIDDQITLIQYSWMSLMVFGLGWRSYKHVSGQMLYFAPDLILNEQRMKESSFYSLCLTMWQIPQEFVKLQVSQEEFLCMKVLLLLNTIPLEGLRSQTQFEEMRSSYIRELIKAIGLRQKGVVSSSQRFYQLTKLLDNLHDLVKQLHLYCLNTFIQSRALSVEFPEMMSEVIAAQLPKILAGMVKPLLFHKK

Progesterone receptor [2] = biological target: T1, Progesterone receptor; assay: (§2) Inhibition of progesterone receptor expressed in CHO cells by luciferase assay; type: cell-based
[3] = biological target: T2, Progesterone receptor (Homo sapiens) (UniProt P06401); assay: as §1; type: functional, cell-based
T2 sequence (whole entry): T1 sequence (P06401 whole entry)

[4] = biological target: T2, Progesterone receptor (Homo sapiens); assay: as §2; type: cell-based

SMILES: O=C(N[C@H]1CCCN2c3ccccc3Oc3ccccc3[C@H]12)C(F)(F)F
- EC50 (Progesterone receptor [1]): 222 nM

SMILES: O=C(N[C@H]1CCCN2c3cc(Cl)c(Cl)cc3Oc3ccccc3[C@H]12)C(F)(F)F
- EC50 (Progesterone receptor [1]): 38 nM
- IC50 (Progesterone receptor [2]): 318 nM

SMILES: CCN[C@H]1CCCN2c3ccccc3Oc3ccccc3[C@H]12
- Activity [3]: inactive
- Activity [4]: inactive

SMILES: N=C(N[C@H]1CCCN2c3cc(Cl)ccc3Oc3ccccc3[C@H]12)C(F)(F)F
- EC50 (Progesterone receptor [1]): 10.3 nM
- IC50 (Progesterone receptor [2]): 133 nM

SMILES: N[C@H]1CCCN2c3ccccc3Oc3ccccc3[C@H]12
- Activity [3]: inactive
- Activity [4]: inactive

SMILES: O=C(N[C@H]1CCCN2c3cc(Cl)ccc3Sc3ccccc3[C@H]12)C(F)(F)F
- EC50 (Progesterone receptor [1]): 2.8 nM

SMILES: CC(=O)N[C@H]1CCCN2c3cc(Cl)ccc3Oc3ccccc3[C@H]12
- EC50 (Progesterone receptor [1]): 4450 nM
- IC50 (Progesterone receptor [2]): 193 nM

SMILES: CC(=O)c1cccc2c1N1CCC[C@H](NC(=O)C(F)(F)F)[C@H]1c1ccccc1O2
- EC50 (Progesterone receptor [1]): 0.96 nM

SMILES: O=C(N[C@H]1CCCN2c3cc(Cl)ccc3Oc3ccccc3[C@H]12)C(F)(F)F
- EC50 (Progesterone receptor [1]): 3 nM
- IC50 (Progesterone receptor [2]): 4.3 nM

SMILES: C=Cc1ccc2c(c1)N1CCC[C@H](NC(=O)C(F)(F)F)[C@H]1c1ccccc1O2
- EC50 (Progesterone receptor [1]): > 1000 nM

SMILES: O=C(N[C@H]1CCCN2c3ccc(Cl)cc3Oc3ccccc3[C@H]12)C(F)(F)F
- EC50 (Progesterone receptor [1]): 993 nM
- IC50 (Progesterone receptor [2]): 2220 nM

SMILES: CC(C)CNC(=S)N[C@H]1CCCN2c3cc(Cl)ccc3Oc3ccccc3[C@H]12
- Activity [3]: inactive
- IC50 (Progesterone receptor [2]): 314 nM

SMILES: N[C@H]1CCCN2c3cc(Cl)ccc3Oc3ccccc3[C@H]12
- EC50 (Progesterone receptor [1]): 513 nM
- Activity [4]: inactive

SMILES: CN1c2ccccc2[C@@H]2[C@@H](NC(=O)C(F)(F)F)CCCN2c2cc(Cl)ccc21
- EC50 (Progesterone receptor [1]): 9.8 nM

SMILES: O=C(NC1CCCN2c3cc(Cl)ccc3Oc3ccccc3C12)C(F)(F)F (racemic)
- EC50 (Progesterone receptor [1]): 10.6 nM
- IC50 (Progesterone receptor [2]): 43 nM

SMILES: O=C(N[C@@H]1CCCN2c3cc(Cl)ccc3Oc3ccccc3[C@@H]12)C(F)(F)F (racemic)
- EC50 (Progesterone receptor [1]): 54 nM

SMILES: O=C(N[C@H]1CCCN2c3c(Cl)cccc3Oc3ccccc3[C@H]12)C(F)(F)F
- EC50 (Progesterone receptor [1]): 19 nM

SMILES: FC(F)(F)C(=S)N[C@H]1CCCN2c3cc(Cl)ccc3Oc3ccccc3[C@H]12
- EC50 (Progesterone receptor [1]): 1.3 nM

SMILES: CC(=O)c1ccc2c(c1)N1CCC[C@H](NC(=O)C(F)(F)F)[C@H]1c1ccccc1O2
- EC50 (Progesterone receptor [1]): 258 nM

SMILES: O=C(N[C@H]1CCCN2c3cc(Cl)ccc3Oc3ccccc3[C@H]12)OCCl
- EC50 (Progesterone receptor [1]): 598 nM

SMILES: O=C(N[C@H]1CCCN2c3cc(F)ccc3Oc3ccccc3[C@H]12)C(F)(F)F
- EC50 (Progesterone receptor [1]): 198 nM
- IC50 (Progesterone receptor [2]): 730 nM

SMILES: CC(C)CN[C@H]1CCCN2c3cc(Cl)ccc3Oc3ccccc3[C@H]12
- EC50 (Progesterone receptor [1]): 1340 nM

SMILES: C=Cc1cccc2c1N1CCC[C@H](NC(=O)C(F)(F)F)[C@H]1c1ccccc1O2
- EC50 (Progesterone receptor [1]): 0.81 nM

SMILES: O=C(N[C@H]1CCCN2c3cc(Cl)ccc3Cc3ccccc3[C@H]12)C(F)(F)F
- EC50 (Progesterone receptor [1]): 2 nM
- IC50 (Progesterone receptor [2]): 26 nM

SMILES: O=C(N[C@H]1CCCN2c3c(ccc(Cl)c3Cl)Oc3ccccc3[C@H]12)C(F)(F)F
- EC50 (Progesterone receptor [1]): 1.6 nM

SMILES: CN(C(=O)C(F)(F)F)[C@H]1CCCN2c3cc(Cl)ccc3Oc3ccccc3[C@H]12
- EC50 (Progesterone receptor [1]): 450 nM
